Laboratory results published in US20150037399A1, “NOVEL USE OF PIPOXOLAN AND ITS PHARMACEUTICAL COMPOSITION” (China Medical University, priority 2013, published 2015).

Legend:
[1] = test system: PDGF-BB-induced migration of A7r5 cells (VSMCs); experiment: In vitro wound healing assay; assay type: cell-based; details: PDGF-BB 30 ng/ml, 5, 10 and 15 μM, 24, 48 and 72 hr, dose-dependent
Experimental: The VSMCs cell line A7r5 was purchased from Bioresource Collection and Research Center (Hsinchu, Taiwan). A7r5 cells were plated onto 6-well plates in DMEM, supplemented with 10% FBS, 100 units/ml penicillin, 100 μg/ml streptomycin and 2 mM L-glutamine and grown at 37° C. under a humidified 5% CO2 and 95% air at one atmosphere. The effects of pipoxolan on VSMCs migration were evaluated by a wound-healing assay. Platelet-derived growth factor (PDGF) form VMSCs can cause cell migration, which results in intimal hyperplasia. A7r5 cells were plated in 6-well plates (2×10^5 cells per well) and damage was performed with a single scratch wound using a sterile micropipette tip. Cells were then incubated with or without PDGF-BB (30 ng/ml) and pipoxolan (5, 10, 15 μM) in serum-reduced DMEM medium (containing 0.5% fetal bovine serum). The extent of wound closure was determined using a phase contrast microscope at 24, 48, and 72 hr following wounding. Cell migration was expressed by the migration distance of drug-treated cells (mm) divided by the migration distance of untreated cells (mm).

TUNEL positive cells = experiment: TUNEL assay in cortex of ischemic rats; assay type: in vivo, Sprague-Dawley (SD) rats; details: rat cortex, 24 hr after focal ischemia
Experimental: Nine rats were randomly assigned into 3 treatment groups, three rats for each group. Group 1 rats were treated with saline and groups 2 and 3 treated with pipoxolan (10 mg/kg and 30 mg/kg, respectively). Focal ischemia was induced by occlusion of both CCA and the right MCA as previously described. Twenty four hours after focal ischemia, rats were deeply anesthetized by intraperitoneal injection of 50 mg/kg of zoletil® followed by intracardiac perfusion with 200 ml of 0.9% saline, followed by 4% paraformaldehyde in 0.1 M PBS and animals were decapitated. The percentage of positive TUNEL staining cells within areas of the cortex was estimated.

[2] = test system: PDGF-BB-induced migration of A7r5 cells (VSMCs); experiment: Transwell migration assay; assay type: cell-based; details: PDGF-BB 30 ng/ml 48 hr, vs PDGF-BB control, read-out: percent inhibition of cell migration across the membrane
Experimental: The VSMCs cell line A7r5 was purchased from Bioresource Collection and Research Center (Hsinchu, Taiwan). A7r5 cells were plated onto 6-well plates in DMEM, supplemented with 10% FBS, 100 units/ml penicillin, 100 μg/ml streptomycin and 2 mM L-glutamine and grown at 37° C. under a humidified 5% CO2 and 95% air at one atmosphere. Effects of pipoxolan on VSMCs migration were further investigated by a transwell migration chamber with a collagen-coated polycarbonate filter. A7r5 cells (2×10^5 cells) were seeded on a transwell apparatus (a 6.5-mm polyethylene terephthalate membrane with 8-μm pores) and treated with pipoxolan (0, 5, 10 and 15 μM) in the presence of PDGF-BB (30 ng/ml) for 48 hr. The cells were then trypsinized, resuspended in 0.5% FBS medium. FBS/DMEM (10%) was added to the bottom chamber of each well as the chemoattractant. Cells were allowed to migrate for 8 hr through the membrane to the underside of the apparatus. Cells were then fixed with methanol for 10 min and stained with Giemsa solution for 30 min. The cells migrating to the lower outside of the insert membrane were counted manually using a microscope and the NIS-Elements software.

[3] = test system: carotid-ligation induced intimal hyperplasia; experiment: Carotid ligation model, intima/media ratio (hematoxylin-eosin staining); assay type: in vivo, ICR mice; details: mice, vs control group
Experimental: Male ICR mice, weighing 20 to 25 g, were used as a carotidligation model. Fifteen mice were randomly assigned to 3 treatment groups, five mice for each group. All mice were fasted overnight with free access to water, then anesthetized with zoletil® (25 mg/kg i.p.). Carotid ligation was performed by a midline neck incision and the left common carotid artery exposed. The carotid artery was completely ligated just proximal to the carotid bifurcation, and the right carotid artery served as a non-injured control artery. The incision was closed after ligation, and the animals were allowed to recover. On the day of carotid ligation, mice were randomized into 3 treatment groups and anesthetized as described. Group 1 mice were treated with saline and groups 2 and 3 treated with pipoxolan (10 mg/kg and 30 mg/kg, respectively). Subsequent pipoxolan and saline treatments were given by gastric gavage on the second day after carotid ligation and once daily for 28 days. […] Images were digitized and analyzed with Image-Pro software. The areas of the lumen, internal elastic lamina (IEL), and external elastic lamina (EEL) were determined by computerized planimetry. The intima area was calculated by subtracting the luminal from the IEL area, and media area was determined by subtracting the IEL area from the EEL area. The ratio of intima to media area (I/M ratio) was calculated and analyzed. […]

MMP-2 = experiment: Western blot of MMP-2 in PDGF-BB-stimulated VSMCs; assay type: cell-based
Experimental: (§1) The role of matrix metalloproteinase-2/9 (MMP-2/9) and the Ras/MEK/ERK signaling pathways were used to evaluate the effect of pipoxolan on VSMCs migration. The protein expression levels were determined by Western blot analysis. Each vertical bars represented mean±S.E. **p<0.01 and ***p<0.001 compared with control group (n=6 in each group).

MMP-9 = experiment: Western blot of MMP-9 in PDGF-BB-stimulated VSMCs; assay type: cell-based; details: Rattus norvegicus, VSMC, read-out: inhibition of MMP-9 level
Experimental: as §1

Cl.O=C1OC(CCN2CCCCC2)OC1(c1ccccc1)c1ccccc1 (stereo not shown) [pipoxolan, 5,5-diphenyl-2-(2-piperidin-1-ylethyl)-1,3-dioxolan-4-one hydrochloride]
effect on PDGF-BB-induced cell migration (wound closure) [1]: markedly inhibited | percent reduction of TUNEL positive cells (TUNEL positive cells; 10 mg/kg): 31.25% | percent reduction of TUNEL positive cells (TUNEL positive cells; 30 mg/kg): 46.88% | inhibition at 5 µM ([2]; 5 μM): 46.2% | inhibition at 10 µM ([2]; 10 μM): 62.2% | inhibition at 15 µM ([2]; 15 μM): 76.5% | percent reduction of I/M ratio (intima/media) ([3]; 10 mg/kg p.o. once daily for 28 days after carotid ligation): 24.21% | percent reduction of I/M ratio (intima/media) ([3]; 30 mg/kg p.o. once daily for 28 days after carotid ligation): 47.20% | reduction of MMP-2 protein level (MMP-2; 10 μM): 12.4% | reduction of MMP-2 protein level (MMP-2; 15 μM): 24.4% | inhibition at 5 µM (MMP-9; 5 μM): 39.4% | inhibition at 10 µM (MMP-9; 10 μM): 45.4% | inhibition at 15 µM (MMP-9; 15 μM): 36.6%
